The results in this text go back to patent publication US12685312B2, “Sulfonamide apyrase inhibitors” (Texas Crop Science, Inc., priority 2022, dated 2026).

In the assay the test system is apyrase. Put plainly: Screen for apyrase inhibitors (Method 1, in vitro phosphate-release absorbance assay). The class given is biochemical. Conditions: inhibitor conc at 1 mM stock, 1 hr room temperature, absorbance 630 nm; rounded average of two assay results. The method in brief: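 Phosphate-release colorimetric assay (Windsor method) in 60 mM Hepes, 3 mM MgCl2, 3 mM CaCl2, 3 mM ATP, pH 6.5, with compound or DMSO control added. Released phosphate developed with ammonium molybdate and ascorbic acid/TCA, then stopped with citrate/acetic acid.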
Turning to `O=C(Nc1cccc([N+](=O)[O-])c1)c1cccc(S(=O)(=O)Nc2cccc(F)c2)c1` [I-51, 3-(N-(3-fluorophenyl)sulfamoyl)-N-(3-nitrophenyl)benzamide], the “% Inhibition of Apyrase” value turned out to be 10%.

For the compound `COc1ccccc1NC(=O)c1ccc(NS(=O)(=O)c2cccc(C#N)c2)cc1` [I-944, 4-((3-cyanophenyl)sulfonamido)-N-(2-methoxyphenyl)benzamide], the “% Inhibition of Apyrase” value worked out at 47%.

With `CCOc1ccc(S(=O)(=O)Nc2cccc(C(=O)Nc3ccc(C)cn3)c2)cc1` [I-640, 3-((4-ethoxyphenyl)sulfonamido)-N-(5-methylpyridin-2-yl)benzamide], the “% Inhibition of Apyrase” value was determined as 56%.

Take `O=C(Nc1nc2ccccc2[nH]1)c1cccc(NS(=O)(=O)c2ccc3c(c2)OCCO3)c1` [I-656, N-(1H-benzo[d]imidazol-2-yl)-3-((2,3-dihydrobenzo[b][1,4]dioxine)-6-sulfonamido)benzamide]: the “% Inhibition of Apyrase” value was found to be 34%.

As for `C[S+]([O-])c1ccc(C(=O)Nc2cccc(S(=O)(=O)Nc3ccc(Br)cc3)c2)cc1` (stereo not shown) [I-334, N-(3-(N-(4-bromophenyl)sulfamoyl)phenyl)-4-(methylsulfinyl)benzamide], the “% Inhibition of Apyrase” value is listed as 40%.

Take `COc1ccccc1NS(=O)(=O)c1ccc(NC(=O)c2ccccc2SCC2CCCO2)cc1` (stereo not shown) [I-985, N-(4-(N-(2-methoxyphenyl)sulfamoyl)phenyl)-2-(((tetrahydrofuran-2-yl)methyl)thio)benzamide]: the “% Inhibition of Apyrase” value came to 57%.

For the compound `Cc1cnc(C(=O)Nc2cccc(S(=O)(=O)N(C)c3ccccc3)c2)cn1` [I-767, 5-methyl-N-(3-(N-methyl-N-phenylsulfamoyl)phenyl)pyrazine-2-carboxamide], the “% Inhibition of Apyrase” value was found to be 12%.

On to `O=C(Nc1cc(Cl)ccc1NS(=O)(=O)c1ccccc1F)c1ccc2c(c1)OCO2` [I-813, N-(5-chloro-2-((2-fluorophenyl)sulfonamido)phenyl)benzo[d][1,3] dioxole-5-carboxamide], for which the “% Inhibition of Apyrase” value is recorded as 44%.

For `O=C(Nc1ccc(OC(F)F)c(Cl)c1)c1cccc(S(=O)(=O)Nc2ccc3c(c2)OCO3)c1` [I-181, 3-(N-(benzo[d][1,3]dioxol-5-yl)sulfamoyl)-N-(3-chloro-4-(difluoromethoxy)phenyl)benzamide], the “% Inhibition of Apyrase” value amounted to 77%.

Consider `CC(=O)c1cccc(NC(=O)c2ccc(S(=O)(=O)Nc3ccc(C)cc3)cc2)c1` [I-398, N-(3-acetylphenyl)-4-(N-(p-tolyl)sulfamoyl)benzamide], for which the “% Inhibition of Apyrase” value is reported as 44%.

`CN(c1ccccc1)S(=O)(=O)c1cccc(NC(=O)c2cncc(Br)c2)c1` [I-720, 5-bromo-N-(3-(N-methyl-N-phenylsulfamoyl)phenyl)nicotinamide]: the “% Inhibition of Apyrase” value turned out to be 58%.

On to `CC1Cc2ccccc2N1S(=O)(=O)c1cccc(C(=O)Nc2cccc(S(=O)(=O)N(C)C)c2)c1` (stereo not shown) [I-556, N-(3-(N,N-dimethylsulfamoyl)phenyl)-3-((2-methylindolin-1-yl)sulfonyl)benzamide], for which the “% Inhibition of Apyrase” value worked out at 52%.

With `CCCNC(=O)CN(CCC)C(=O)c1cccc(S(=O)(=O)Nc2ccc(Br)cc2)c1` [I-287, 3-(N-(4-bromophenyl)sulfamoyl)-N-(2-oxo-2-(propylamino)ethyl)-N-propylbenzamide], the “% Inhibition of Apyrase” value worked out at 11%.

Consider `O=C(Nc1cccc(S(=O)(=O)Nc2ccc(Br)cc2)c1)c1ccc([N+](=O)[O-])s1` [I-702, N-(3-(N-(4-bromophenyl)sulfamoyl)phenyl)-5-nitrothiophene-2-carboxamide], for which the “% Inhibition of Apyrase” value is recorded as 73%.

In the case of `CN(c1ccccc1)S(=O)(=O)c1ccccc1C(=O)Nc1ccc2c(c1)OCO2` [I-351, N-(benzo[d][1,3]dioxol-5-yl)-2-(N-methyl-N-phenylsulfamoyl)benzamide], the “% Inhibition of Apyrase” value stood at 53%.

Turning to `COc1ccccc1NS(=O)(=O)c1cccc(NC(=O)c2cncc(Br)c2)c1` [I-766, 5-bromo-N-(3-(N-(2-methoxyphenyl)sulfamoyl)phenyl) nicotinamide], the “% Inhibition of Apyrase” value was found to be 14%.
